Laboratory results taken from PMC8280061, “A novel ligand of the translationally controlled tumor protein (TCTP) identified by virtual drug screening for cancer differentiation therapy” (Investigational New Drugs, 2021).

Assays:
[1] = target: T1, translationally controlled tumor protein (TCTP) (Homo sapiens, UniProt P13693); assay: microscale thermophoresis with NHS-labeled purified human TCTP (reference inhibitor, positive control); assay type: binding
T1 construct: gene TPT1
T1 sequence (P13693 1-172): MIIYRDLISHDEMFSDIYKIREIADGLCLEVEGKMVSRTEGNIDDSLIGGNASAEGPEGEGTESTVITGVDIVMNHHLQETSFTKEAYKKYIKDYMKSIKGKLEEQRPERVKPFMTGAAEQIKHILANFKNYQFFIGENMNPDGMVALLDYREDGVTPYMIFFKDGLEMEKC

[2] = target: T1, translationally controlled tumor protein (TCTP); assay: microscale thermophoresis with NHS-labeled purified human TCTP; supported by co-immunoprecipitation of p53 from treated MOLT-4 cells; assay type: binding

Structure (SMILES)	Kd [1] [µM]	Kd [2] [nM]
C[C@H]1[C@H](OC(=O)CCC(=O)O)O[C@@H]2O[C@@]3(C)CC[C@H]4[C@H](C)CC[C@@H]1[C@@]24OO3 [Artesunate]	23.2 ± 9.45	–
COc1cccc2c(C)nc(Nc3nc(-c4ccc(F)cc4)cc(=O)[nH]3)nc12 [ZINC10157406, 6-(4-fluorophenyl)-2-[(8-methoxy-4-methyl-2-quinazolinyl)amino]-4(3H)-pyrimidinone]	–	870 ± 380
